Data as given in patent publication US11851391B2, “Antifungal compounds and methods of forming the same” (University of Kentucky Research Foundation, priority 2018, dated 2023).
Entries after “also recorded” stand apart in the source; their conditions may differ.

Legend:
[1] = test system: human bronchus normal cell line BEAS-2B; test: In vitro cytotoxicity assay (resazurin); format: cell-based; details: 24 h
Protocol: The human bronchus normal cell line BEAS-2B (ATCC CRL-9609) and the human lung carcinoma cell line A549 (ATCC CRL-185) were kind gifts from the laboratories of Dr. Matthew S. Gentry (University of Kentucky, Lexington, KY, USA) and Dr. David K. Orren (University of Kentucky, Lexington, KY, USA). The mammalian cells were grown in Dulbecco's Modified Eagle's Medium (DMEM) (from ATCC) with 10% fetal bovine serum (FBS) (from ATCC) and 1% Pen/Strep (from ATCC). Cell lines were cultured at 37° C. with 5% CO2 and passaged by trypsinization with 0.05% trypsin:0.53 mM EDTA (from ATCC). Cell confluency was determined by using a Nikon Eclipse TS100 microscope (Minato, Tokyo, Japan).
Cytotoxicity assays were performed as previously described with slight modifications. A549 and BEAS-2B cells were first thawed from stocks and grown. The confluent cells were transferred to a 96-well microtiter plates at density of 3000 cells/well. The 96-well plates were incubated at 37° C. with 5% CO2 overnight. […] The stock solutions were serially diluted in 1.5 mL eppendorf tubes to achieve concentrations of 31-0.12 mg/mL. 1 μL of these 1000× compound stock solutions was then added to 999 μL of DMEM medium in 1.5 mL eppendorf tubes to obtain final concentrations of 31-0.12 μg/mL. […] The 96-well plates were further incubated for 24 h at 37° C. with 5% CO2. To evaluate cell survival, each well was treated with 10 μL (25 mg/L) of resazurin sodium salt (Sigma-Aldrich, St. Louis, MO, USA) and incubated for another 6 h. Metabolically active cells can convert resazurin to the highly fluorescent dye, resorufin, and be detected at A560 excitation and A590 emission using a SpectraMax M5 plate reader (Molecular Devices, San Jose, CA, USA). […] The percentage survival rates were calculated by using the following formula: % cell survival=[(fluorescence of sample)−(fluorescence of background)]×100/[(fluorescence of negative control)−(fluorescence of background)]. Experiments were done in duplicate.

[2] = test system: C. albicans ATCC 10231 (strain A) biofilms; test: Biofilm disruption assay (XTT reduction); format: cell-based, Candida albicans
Protocol: (§1) Biofilms are complex communities of one or more species of microorganisms encased in extracellular polymeric substances and attached to not only a solid surface but also to each other. Because of their complex, matrix-like nature, antifungal agents are often unable to reach the pathogens embedded in these networks. […] This increase reflected some resistance of Candida biofilms against the bishydrazone 17c.
(§2) Biofilm disruption assays were performed to assess the effectiveness of compound 17c against sessile yeast cells for two representative yeast strains, C. albicans ATCC 10231 (strain A) and C. albicans ATCC 64124 (strain B). VOR was used as a positive control. Biofilm assays were performed in 96-well plates using XTT [2,3-bis(2-methoxy-4-nitro-5-sulfophenyl)-2H-tetrazolium-5-carboxanilide] to measure the viability of the biofilm as previously described. An overnight culture of the yeast cells was grown at 35° C. in YPD medium with shaking at 200 rpm. The overnight culture was diluted in RPMI 1640 medium to an OD600 between 0.12 and 0.15 to make a working stock. The working stock was transferred to 96-well plates in 100 μL aliquots, leaving one column empty for the sterile controls. […] 80 μL of liquid from each well was transferred to new plates, which were then read for absorbance at 450 nm with a SpectraMax M5 plate reader (Molecular Devices, Sunnyvale, CA, USA). […]

[3] = test system: C. albicans ATCC 64124 (strain B) biofilms; test: Biofilm disruption assay (XTT reduction); format: cell-based, Candida albicans
Protocol: as §1, §2

[4] = test system: C. albicans ATCC 64124 (strain B); test: Time-kill assay; format: cell-based, Candida albicans
From the text: (§3) To determine the fungistatic or fungicidal nature of the compounds, time-kill assays were next performed over a 24-hour period with 4,4′-bis((E)-1-(2-(4-fluorophenyl)hydrazono)ethyl)-1,1′-biphenyl (17c).
(§4) Time-kill assays were used to assess the inhibitory efficiency of compound 17c against two yeast strains, C. albicans ATCC 10231 (strain A) and C. albicans ATCC 64124 (strain B). The protocol for time-kill assays followed methods previously described with minor modifications. Yeast cultures were grown overnight in YPD medium at 35° C. with shaking at 200 rpm. A working stock of fungal cells was made by diluting cultures in RPMI 1640 medium to an OD600 of 0.125 (˜1×10^6 CFU/mL). From the working stock, 100 μL of cells were added to 4.9 mL of RPMI 1640 medium in sterile culture tubes, making the starting fungal cell concentration […]. Compounds were then added to the fungal cells. […] The treated fungal cultures were incubated at 35° C. with 200 rpm shaking for 24 h. Samples were aliquoted from the different treatments at regular time points (0, 3, 6, 9, 12, and 24 h) and plated in duplicate. For each time point, cultures were vortexed, 100 μL of culture were aspirated, and 10-fold serial dilutions were made in sterile ddH2O. From the appropriate dilutions, 100 μL of fungal suspension was spread onto PDA plates and incubated at 35° C. for 48 h before colony were counted. At 24 h, 50 μL of 1 mM resazurin in PBS was added to the treatments and incubated at 35° C. with 200 rpm shaking for 2 h in the dark for visual inspection (FIGS. 5A-D). Experiments were performed in duplicate.

[5] = test system: C. albicans ATCC 10231 (strain A); test: Time-kill assay; format: cell-based, Candida albicans
From the text: as §3, §4

COc1ccc(N/N=C/c2ccc(-c3cccc(/C=N/Nc4ccc(OC)cc4)c3)cc2)cc1 [Compound 15a]
toxicity (in words) ([1]; BEAS-2B at 15.5 μg/mL): non-toxic

COc1ccc(N/N=C/c2ccc(-c3ccc(/C=N/Nc4ccc(OC)cc4)cc3)cc2)cc1 [Compound 15b]
toxicity (in words) ([1]; BEAS-2B at 15.5 μg/mL): non-toxic

Fc1ccc(N/N=C/c2ccc(-c3cccc(/C=N/Nc4ccc(F)cc4)c3)cc2)cc1 [Compound 17a]
toxicity (in words) ([1]; BEAS-2B at 31 μg/mL): non-toxic

C/C(=N\Nc1ccc(F)cc1)c1ccc(-c2ccc(/C(C)=N/Nc3ccc(F)cc3)cc2)cc1 [Compound 17c, 4,4′-bis((E)-1-(2-(4-fluorophenyl)hydrazono)ethyl)-1,1′-biphenyl]
increase of SMIC values compared to planktonic MIC value [2]: 4- to 16 fold
increase of SMIC values compared to planktonic MIC value [3]: 4- to 8 fold
toxicity (in words) ([1]; BEAS-2B at 15.5 μg/mL): non-toxic
reduction in fungal growth compared with VOR ([4]; 17c at equal to or one-half of the MIC value versus VOR at the MIC value): greater reduction in fungal growth
fungistatic or fungicidal nature ([4]; 24-hour period, up to twice its MIC value): fungistatic; also recorded: more fungistatic than the control drug VOR
reduction in fungal growth compared with VOR ([5]; 17c at one-half of the MIC value versus VOR at the MIC value): greater reduction in fungal growth
fungistatic or fungicidal nature ([5]; 24-hour period, 0.5x, 1x, 2x MIC): fungistatic; also recorded: more fungistatic than the control drug VOR

Fc1ccc(N/N=C/c2ccc(-c3cccc(/C=N/Nc4ccc(F)cc4F)c3)cc2)c(F)c1 [Compound 20a]
toxicity (in words) ([1]; BEAS-2B at 15.5 μg/mL): non-toxic
